We go through two molecules from article PMC9926489, “Chemical Optimization of Selective Pseudomonas aeruginosa LasB Elastase Inhibitors and Their Impact on LasB-Mediated Activation of IL-1β in Cellular and Animal Infection Models” (ACS Infectious Diseases, 2023).

Data set [1] can be described thus: Thermodynamic solubility in PBS (pH 7.4). The data set is classed as physicochemical. The conditions noted are these: aqueous buffer, thermodynamic from solid.
A short description of data set [2]: Cytotoxicity screening (MTS), HepG2. The conditions noted are these: human, HepG2 cells. The data set is classed as cell-based. The procedure:
Bronchial smooth muscle cells (BSMC, Lonza CC-2576), small airway epithelial cells (SAEC, Lonza CC-2547), or HepG2 cells (ATCC HB-8065) were seeded in 96-well plates at a density of 25,000 per well. Culture of these cells throughout the protocol utilized incubation at 37 °C, 5% CO2 in a humidified atmosphere, with BSMC and SAEC cells cultured in cell-specific media (Lonza) and HepG2 cells cultured in RPMI 1640 medium containing Glutamax (Gibco) and 10% fetal bovine serum. Plates containing BSMC cells were collagen coated to assist with cell adhesion. Following an overnight settling period, media was replaced with fresh media, with, or without, compound. Compound concentrations tested were 1, 3, 10, 30, and 100 μM, in duplicate. The cells were incubated with compound for 24 h. Control (1% DMSO) and positive standards terfenadine- and salmeterol-treated groups were included for both cell lines. […] The reaction was stopped with 12.5 μL of 10% SDS, plates briefly shaken, and absorbance (490 nm) read using a Spectramax M5e plate reader (Molecular Devices). Percentages of viable cells were calculated as: (test sample Abs 490 nM-mean blank Abs 490 nm)/(mean control Abs 490 nM-mean blank Abs 490 nm) × 100.

In the next data set the target is T1, LasB T65I (Pseudomonas aeruginosa, UniProt P14756).
T1 construct: endogenous in cells; host or cells: P. aeruginosa clinical CF isolate, culture supernatant
The experiment in a line: LasB variant inhibition, culture supernatant: T65I. The data set is classed as biochemical, P. aeruginosa. From the text:
Compounds 12 and 16 were discovered as a result of optimizing potency against the LasB protein expressed from the wild-type (WT) reference strain P. aeruginosa PAO1. To understand the relative prevalence of the WT LasB protein versus other variants in clinical respiratory P. aeruginosa strains, the full-length lasB gene was amplified by PCR from 255 clinical isolates (obtained from CF sputum samples). […] Most changes were identified in the mature peptide, however some occurred in the propeptide domain, which could affect LasB processing (marked in italics in Table 4).
LasB inhibition assays were performed using purified LasB enzyme (1 ng/well) for compound screening or using culture supernatants (prepared as described in the ECR assay) for testing LasB variants. Hydrolysis of the fluorogenic peptide substrate 2-aminobenzoyl-Ala-Gly-Leu-Ala-4-nitrobenzylamide (Abz-AGLA-Nba; Peptide International) in 50 mM Tris-HCl (pH 7.4), supplemented with 2.5 mM CaCl2 was followed using an Envision microplate reader (PerkinElmer) at 315 nm excitation and 430 nm emission. […] IC50 values were determined from Hill plots using Dotmatics Studies ELN software. For the mechanism of inhibition studies, hydrolysis rates were measured in the presence of variable concentrations of substrate and inhibitor, and the inhibition constant (Ki) was determined using Dixon plot analysis.[31]

The structures appear in SMILES notation.

T1 sequence (P14756 198-498, stated change not applied): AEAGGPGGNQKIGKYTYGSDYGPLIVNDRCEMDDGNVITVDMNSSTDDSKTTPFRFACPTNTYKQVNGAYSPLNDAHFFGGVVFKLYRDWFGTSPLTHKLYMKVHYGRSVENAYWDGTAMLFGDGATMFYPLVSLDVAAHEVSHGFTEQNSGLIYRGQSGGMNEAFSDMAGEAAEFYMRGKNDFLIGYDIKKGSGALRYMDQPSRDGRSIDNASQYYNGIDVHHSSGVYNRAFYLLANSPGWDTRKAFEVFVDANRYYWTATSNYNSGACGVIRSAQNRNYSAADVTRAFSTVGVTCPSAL

What is called solubility is how much of the substance goes into solution per volume. Low values mean little dissolved substance, high ones much dissolved substance. One may read the IC50 as the concentration that inhibits the measured activity by half. Consider `COc1cc2sc(CNC(=O)C3(CC(=O)O)Cc4ccccc4C3)nc2cc1OCCC[N+](C)(C)C` [Compound 12], for which, in data set [1], the concentration in solution (solubility) was 17.7 mg/mL. Moreover, the IC50 at 24 h in data set [2] was more than 100 µM. This molecule also registered an IC50 on LasB T65I of 216 nM.
Regarding `COc1cc2sc(CNC(=O)C3(CC(=O)O)Cc4cc(F)c(F)cc4C3)nc2cc1OCCC[N+](C)(CCO)CCO` [Compound 16], the concentration in solution in data set [1] (solubility) came to 15.1 mg/mL. The IC50 at 24 h in data set [2] is more than 100 µM. The molecule also showed an IC50 against LasB T65I of 182 nM.
